From patent publication US20170184612A1, “USE OF LEUKOCYTES AND NOVEL BIOMARKERS IN THE DIAGNOSIS, CONFIRMATION, AND TREATMENT OF A NEUROLOGICAL DISORDER” (The Trustees of Columbia University in the City of New York, priority 2014, published 2017)

How the values were obtained:
Type in all cases: cell-based, human
[1] = test system: peripheral blood mononuclear cells (PBMC), T cells; test: ELISpot assay, IL-5 release (SFC) after stimulation with a-synuclein epitope pools; details: for IL-g Peptide + (donors positive to the peptide): of donors tested (peptide); for IL-g Peptide +: number of donors positive to the single peptide
Summary of the method: (§1)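 Cytokine-secreting T cells were enumerated as SFC following 22 h peptide-pool stimulation of gradient-purified PBMC at 37 C. A threshold of 20 SFC per million cells defined confirmed release; group differences were assessed by Mann-Whitney U test.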

[2] = test system: peripheral blood mononuclear cells (PBMC), T cells; test: ELISpot assay, gamma-interferon release (SFC) after stimulation with a-synuclein epitope pools; details: for IFNg Peptide + (donors positive to the peptide): of donors tested (peptide); for IFNg Peptide +: number of donors positive to the single peptide
Summary of the method: as §1

[3] = test system: peripheral blood mononuclear cells (PBMC), T cells; test: ELISpot assay, IFNg and IL-5 reactivity combined, T cell response to α-syn epitopes; details: flag 1/0 per peptide
Method: Blood from age matched controls and PD patients were obtained and mononuclear cells were isolated by gradient centrifugation.
Release of the cytokines gamma-interferon, which measures activation of CD4+ and/or CD8+ T cells, and the interleukin, IL-5, which measures activation of CD4+ T cells was measured by ELISpot assay. […] After 22 hours of stimulation at 37 C, the cells were removed and release of cytokines was measured by colorimetric detection of spot-forming cells (SFC). Confirmed release of cytokine is determined by the presence of a minimum of 20 SFC per million cells.
The binding algorithms in SubAim 1 predict how well the peptides would bind to MHC if present, but not if they are present in patients. To determine this, the presence of T cell response against the candidate antigens by patient blood-derived peripheral blood mononuclear cells (PBMC) is assessed by ELISPOT assays upon stimulation with the peptides. This assay detects and quantifies cytokine release (in this case, IFNγ and IL-5) from specific activated T cells.
Data were obtained from blood samples (25 ml) from 44 PD patients and 24 age-matched controls. The experiments were conducted blindly. PBMCs from these samples were isolated and exposed to pools comprising the 122 candidate class I and class II antigens and phosphorylated S129 epitopes generated in Subaim 1. For the PBMCs responsive to the pooled peptides, the response was then deconvoluted to identify individual epitopes.
PMBC fractions are recovered by standard methods with Ficoll gradient and T cells expansion (Oseroff et al., 2010). The methods for the analysis of T cell reactions and measurement of cytokines production using the enzyme-linked immunosorbent spot (ELISPOT) assay are published in analogous experiments to discover antigens in multiple sclerosis (Lolli et al., 2013) and in hay fever allergens (Oseroff et al., 2010). T cell responses are determined by measuring IFNγ and IL-5 release by ELISPOT. Statistical analysis of differences between populations is expected to be non-parametric and analyzed with the U-Mann-Whitney test. If there were a normal distribution of response, which is a priori unlikely as some patients have no T cell response, with an SD=1, 8 patients per group would be required to provide a p>90% that the study detect a >2 fold difference at a two-sided 0.05 significance level.

[4] = Normals Summary, single peptide
[5] = Patients Summary, PD patients, single peptide
[6] = second 'Pool Stimulated' section (from r296), 12 donors tested
[7] = peptide + / donors tested (peptide), second 'Pool Stimulated' section (from r296), 12 donors tested
[8] = single peptide, second 'Pool Stimulated' section (from r296), 12 donors tested

Substance	IL-g Peptide + (donors positive to the peptide) ([1]; Normals Summary)	IL-g Response Frequency [1, 4] [%]	IL-g Total SFC [1, 4] [SFC]	IL-g Peptide + (donors positive to the peptide) ([1]; Patients Summary, PD patients)	IL-g Response Frequency [1, 5] [%]	IL-g Total SFC [1, 5] [SFC]	IFNg Peptide + (donors positive to the peptide) ([2]; Normals Summary)	IFNg Response Frequency [2, 4] [%]	IFNg Total SFC [2, 4] [SFC]	IFNg Peptide + (donors positive to the peptide) ([2]; Patients Summary, PD patients)	IFNg Response Frequency [2, 5] [%]	IFNg Total SFC [2, 5] [SFC]	Peptides + in Patients & Normals [3]	IL-g Peptide + [1, 6]	IL-g Response Frequency [1, 7] [%]	IL-g Total SFC [1, 8] [SFC]	IFNg Avg SFC [2, 5] [SFC]	IFNg Peptide + [2, 6]	IFNg Response Frequency [2, 7] [%]	IFNg Total SFC [2, 8] [SFC]	also measured
3521.0017 (FMKGLSKAK; listed as Homo sapiens)	0	0	0	0	0	0	1	100	46.7	0	0	0	0	–	–	–	–	–	–	–	IFNg Avg SFC [2, 4]: 46.7 SFC
3521.008 (VAAAEKTKQGVAEAA; listed as Homo sapiens)	–	–	–	0	0	0	–	–	–	1	33	150	0	0	0	0	150	0	0	0	–
3521.007 (GVVAAAEKTK; listed as Homo sapiens)	–	–	–	1	33	23	–	–	–	2	67	225	0	0	0	0	113	0	0	0	IL-g Avg SFC [1, 5]: 23 SFC
3521.0004 (KTKEGVLYV; listed as Homo sapiens)	–	–	–	0	0	0	–	–	–	0	0	0	0	0	0	0	–	0	0	0	–
3521.0074 (VAAAEKTKQGVAEAP; listed as Homo sapiens)	–	–	–	0	0	0	–	–	–	1	33	67	0	0	0	0	67	0	0	0	–
3521.0046 (FMKGLSKAKE; listed as Homo sapiens)	–	–	–	0	0	0	–	–	–	0	0	0	0	0	0	0	–	0	0	0	–
3521.0066 (KAKEGVVAA; listed as Homo sapiens)	–	–	–	0	0	0	–	–	–	0	0	0	0	0	0	0	–	0	0	0	–
3521.0043 (VFMKGLSKAK; listed as Homo sapiens)	–	–	–	1	33	191	–	–	–	0	0	0	1	1	100	93.3	–	1	100	66.7	IL-g Avg SFC [1, 5]: 191 SFC; IL-g Avg SFC [1, 8]: 93.3 SFC; IFNg Avg SFC [2, 8]: 66.7 SFC
3521.0016 (DVFMKGLSK; listed as Homo sapiens)	1	100	780	0	0	0	1	100	673	0	0	0	0	–	–	–	–	–	–	–	IL-g Avg SFC [1, 4]: 180 SFC; IFNg Avg SFC [2, 4]: 673 SFC
3521.0052 (KTKQGVAEAA; listed as Homo sapiens)	–	–	–	0	0	0	–	–	–	0	0	0	0	0	0	0	–	0	0	0	–
3521.0012 (KTKQGVAEA; listed as Homo sapiens)	0	0	0	0	0	0	0	0	0	0	0	0	0	–	–	–	–	–	–	–	–
3521.001 (VFMKGLSKA; listed as Homo sapiens)	1	100	193	1	33	634	1	100	220	1	33	75	1	–	–	–	75	–	–	–	IL-g Avg SFC [1, 4]: 193 SFC; IL-g Avg SFC [1, 5]: 634 SFC; IFNg Avg SFC [2, 4]: 220 SFC
3521.0053 (KAKEGVVAAA; listed as Homo sapiens)	–	–	–	0	0	0	–	–	–	0	0	0	0	0	0	0	–	0	0	0	–
